Measured values taken from PMC9064588 (RSC Advances, 2019).

Target: α-glucosidase (Maltase EC 3.2.1.20)
Test: PNPG hydrolysis enzyme inhibition assay, absorbance at […] nm
Format: biochemical

IC50: 460 ± 10 nM
SMILES: Oc1cc(O)c2c(c1)O[C@@]1(c3ccc(O)c(O)c3)Oc3cc(O)c4c(c3[C@@H]2[C@H]1O)O[C@H](c1ccc(O)c(O)c1)[C@H](O)C4 [PCA2, Procyanidin A2]
